According to patent publication US20100261682A1, “Method and Means for the Treatment of Cachexia” (Bioneris AB, priority 2007, published 2010):

Columns and labels:
[1] = tested on: mice bearing the MAC16 tumour; assay: Body weight change in cachectic mice bearing the MAC16 tumour treated with alpha-trinositol (Example 1); assay type: in vivo, NMRI mice
Protocol: Materials. Alpha-trinositol (1-D-Myo-inositol 1,2,6-triphosphate) was prepared according to U.S. Pat. No. 4,777,134. In a glass ampoule a stock solution was prepared by dissolving 1 g of alpha-trinositol in saline to a total volume of 10 ml. The stock solution was stored in a refrigerator for use within 24 hrs.
(§1) Animals. Pure strain male NMRI mice (average body weight 25 g) were transplanted with fragments of the MAC16 tumour subcutaneously into the flank by means of a trochar, selected from donor animals with established weight loss (Bibby M C et al., Characterization of transplantable adenocarcinoma in the mouse colon producing cachexia in the recipient animals. J Natl Cancer Inst 78 (1987) 539-546). Transplanted animals were given a rat and mouse breeding diet (Special Diet Services, Witham, UK) and water at lib. Weight loss was evident 10 to 12 days after tumour implantation. Just prior to the development of weight loss 24 animals were randomized into four groups (I-IV) of six animals each.
(§2) Administration of alpha-trinositol. A first experiment was started when the animals had lost about 5% of body weight. Aliquots (2.5 μl, Group I; 5 μl, Group II; 10 μl, Group III) of alpha-trinositol stock solution corresponding to doses of 10 mg/kg, 20 mg/kg, and 40 mg/kg for a 25 g animal were administered subcutaneously three times per day at 8.00, 12.00 and 16.00 hrs. The fourth group (Group IV; control) was given an intravenous injection of 10 μl of water. Body weight (FIG. 1), tumour volume (FIG. 2), and water and food intake were determined daily after the last injection.

[2] = tested on: PIF-induced chymotrypsin-like enzyme activity (proteasome) in C2C12 myotubes; assay: PIF-induced chymotrypsin-like enzyme activity in C2C12 myotubes; assay type: cell-based, murine; details: AT 100 μM, 4.2 nM PIF
Text: Protein degradation induced by PIF is mediated through up-regulation of the ubiquitin-proteasome pathway (Tisdale et al., 2004, Br. J. Cancer). […] A hexanoyl ester of AT (lipid soluble AT) has been produced as a slow release form, after hydrolysis by esterase.

[3] = tested on: 4E-BP1 associated with eIF4E; assay: Western blot after m7GTP-Sepharose extraction: 4E-BP1 associated with eIF4E; assay type: in vivo, NMRI mice; details: 40 mg/kg
Protocol: (§3) Administration of alpha-trinositol. Mice (n=6) bearing the MAC16 tumour were treated with AT (40 mg/kg) s.c., 3 times per day, for 5 days, while a control group received PBS. Protein synthesis and degradation were determined by the incorporation and release of L-[2,6-^3H]phenylalanine, as described in Smith et al., Cancer Res., 2005; 65:277-83. On the fourth day of treatment half of the group administered 0.4 mmol/L L-[2,6-^3H]phenylalanine in PBS (100 μl) by i.p. administration.
(§4) Western blot analysis Gastrocnemius muscle (10 mg) was homogenised in Phosphosafe™ Extraction Reagent (500 μl) and centrifuged at 15000 g for 15 min. Samples of the cytosolic proteins (5 μg) were loaded on either a 10% (mTOR, myosin, eIF4E and eIF4G) 12% (PKR, eIF2α and actin) or 15% (4E-BP1) sodium dodecylsulphate-polyacrylamide gel (SDS-PAGE) and electrophoresed at 180 V for approximately 1 h. The extent of phosphorylation of 4E-BP1, and the association of 4E-BP1 and eIF4G with eIF4E was determined by Western blotting when eIF4E was extracted from the muscle samples by m^7GTP-Sepharose 4B-affinity binding, as previously described Eley ey al., Biochem J., 2007; 407:113-20, by loading 20 μg of protein. […] Blots were scanned by a densitometer to quantify differences.

[4] = tested on: mTOR; assay: Western blot of gastrocnemius muscle: phosphorylated (Ser2448) mTOR; assay type: in vivo, NMRI mice; details: 40 mg/kg; after 4 days treatment
Protocol: as §3, §4

[5] = tested on: PIF (proteolysis inducing factor) induced protein degradation in murine myotubes; assay: PIF-induced protein degradation in murine myotubes; assay type: cell-based; details: AT 100 μM, 2 h prior to addition of PIF
Protocol: To investigate the mechanism by which AT protects lean body mass in cachexia, further experiments were carried out in vitro using murine myotubes as a surrogate model of skeletal muscle. Incubation with either PIF or angiotensin II (Ang II) induced protein degradation with a characteristic bell-shaped dose-response curve as previously reported (Smith et al., 2004, Br. J. Cancer, and Tisdale et al., 2006, Cell. Sig) with the maximal effect of PIF at 4.2 nM and Ang II at 0.5 μM (FIGS. 5 and 8).

[6] = tested on: eIF2α; assay: Western blot of gastrocnemius muscle: phospho eIF2α/total eIF2α; assay type: in vivo, NMRI mice; details: 40 mg/kg; tumour-bearing animals
Protocol: as §3, §4

[7] = tested on: 20S proteasome; assay: 20S proteasome 'chymotrypsin-like' enzyme activity in gastrocnemius muscle; assay type: in vivo, NMRI mice; details: 40 mg/kg s.c., 3 times per day; after 4 days treatment
Protocol: as §3
Determination of proteasome activity The activity of the 20S proteasome was determined as the ‘chymotrypsin-like’ enzyme activity, the predominant proteolytic activity of the β5 subunits of the proteasome. Gastrocnemius muscles were rinsed with ice-cold PBS and homogenised in 20 mmol/L Tris-HCl (pH 7.5), 2 mmol/L ATP, 5 mmol/L MgCl2 and 1 mmol/L DTT followed by sonication. The sonicate was centrifuged for 10 minutes at 18,000×g at 4° C., and enzyme activity in the supernatant was determined by the method of Orino et al., FEBS Lett., 1991; 284:206-10, by determining the release of amino methyl coumarin (AMC) from the fluorogenic substrate LLVY-AMC. Activity was measured in the absence and presence of the specific proteasome inhibitor lactacystin (10 mmoles/L). Only lactacystin suppressible activity was considered to be proteasome specific.

[8] = tested on: 20S proteasome α-subunits; assay: Western blot of gastrocnemius muscle: 20S proteasome α-subunits; assay type: in vivo, NMRI mice; details: 40 mg/kg s.c., 3 times per day
Protocol: as §3, §4

[9] = tested on: PKR; assay: Western blot of gastrocnemius muscle: phospho PKR/total PKR; assay type: in vivo, NMRI mice; details: 40 mg/kg; tumour-bearing animals
Protocol: as §3, §4

[10] = tested on: 4E-BP1; assay: Western blot of gastrocnemius muscle: phosphorylation of 4E-BP1; assay type: in vivo, NMRI mice; details: 40 mg/kg; 60% reduction in untreated tumour-bearing animals
Protocol: as §3, §4

[11] = tested on: MAC16 tumour; assay: Tumour volume in MAC16 tumour-bearing mice treated with alpha-trinositol (Example 1); assay type: in vivo, NMRI mice; details: 10 mg/kg s.c. three times per day
Text: as §1, §2

- effect on PIF-induced chymotrypsin-like enzyme activity [2]: completely attenuated
SMILES: O=P(O)(O)O[C@@H]1[C@H](OP(=O)(O)O)[C@H](O)[C@@H](O)[C@H](O)[C@H]1OP(=O)(O)O [alpha-trinositol, 1-D-Myo-inositol 1,2,6-triphosphate]
- anti-cachexia effect (body weight) ([1]; 10 mg/kg s.c. three times per day): clear anti-cachexia effect
- relative weight loss versus control group ([1]; day 0 to day 5, AT group): half of the control group
- body weight lost ([1]; day 0 to day 5, AT group, s.c. three times per day (FIG. 3: 3×40 mg/kg), control lost ~4.7 g): ~2.3 g
- body weight lost ([1]; day 1 (first day of treatment) to day 5, AT group, control lost 3.3 g): 1.15 g
- weight loss as fraction of the control group ([1]; day 1 to day 5, AT group): ⅓
- tumour-induced increase of 4E-BP1 associated with eIF4E [3]: completely attenuated
- level of the phosphorylated (Ser2448) form of mTOR in gastrocnemius muscle [4]: completely reversed up to the values found in non tumour-bearing animals
- effect on PIF-induced protein degradation [5]: completely attenuated protein degradation down to basal levels
- expression of phospho eIF2α (ratio to total eIF2α) [6]: significant decrease
- chymotrypsin activity (20S proteasome activity) in gastrocnemius muscle [7]: reduced down to levels found in normal non-tumour bearing mice
- expression of the 20S proteasome α-subunits in gastrocnemius muscle [8]: down-regulates
- expression of phospho PKR (ratio phosphoPKR/total PKR) [9]: significant decrease
- tumour-induced reduction in phosphorylation of 4E-BP1 (Thr37/46) [10]: completely attenuated
- tumour inhibition [11]: did not produce any statistically significant effect
